Values of other authors in patent US7524883B2, “Eponemycin and epoxomicin analogs and uses thereof” (Eisai R&D Management Co., Ltd., priority 2002, dated 2009).

Tested on: 20S proteasome

Row | SMILES | binding to the 20S proteasome
1 | C=C(C)C[C@H](NC(=O)[C@H](CO)NC(=O)CCCCC(C)C)C(=O)[C@@]1(CO)CO1 [Eponemycin] | bind covalently and irreversibly
2 | CC[C@H](C)[C@H](NC(=O)[C@H]([C@@H](C)CC)N(C)C(C)=O)C(=O)N[C@H](C(=O)N[C@@H](CC(C)C)C(=O)[C@@]1(C)CO1)[C@@H](C)O [Epoxomicin] | bind covalently and irreversibly
